{"source": "patent US6958360B2", "about": "“Attractant pheromone for the Colorado potato beetle” (The United States of America as represented by the …, priority 2001, dated 2005)", "key": {"[1]": {"system": "Colorado potato beetle (CPB)", "test": "Open Y-track olfactometer behavioral bioassay, optical isomers vs solvent control", "type": "in vivo, Leptinotarsa decemlineata", "settings": "serial source loads 0.0001 to 1.0 μg vs solvent control, male and female", "protocol": "Chemical blends and plant foliage were tested for behavioral activity in an open Y-track olfactometer modified after Visser and Piron (Visser, J. H., and P. G. M. Piron, Proceedings of the Section Experimental and Applied Entomology of the Netherlands Entomological Society Amsterdam, 9: 41-46 (1998)) and described in detail by Dickens (Dickens, J. C., Agric. Forest Entomol., 1: 47-54 (1999)). In brief, odorous stimuli emanating from volatile collections from CPB males feeding on potato plants or the male-specific compound on filter paper discs (2.5 cm dia.; Whatman™ #1 filter paper) in Ehrlenmeyer flasks were delivered to either side of the device. Hydrocarbon free air that was humidified by passing through distilled water carried the odor molecules to either arm of the bioassay apparatus. Treatments were replenished after 30 min of use in the bioassay apparatus. Airflow was regulated to 1 l/min by flowmeters. Experiments were conducted in a darkened room at 22° C. in which the only source of light was that associated with the bioassay device. For all bioassays, at least 20 males and 20 females were tested.\nVolatile collections from male CPB feeding for three hours on a potato plant and serial dilutions of the male specific compound were tested as 10 μl aliquots placed on a filter paper disc as described above. The male specific compound was tested at 1.0 μg/10 μl solvent (hexane) and in a dilution series ranging from 0.0001 to 1.0 μg/10 μl solvent.\nPrior to testing at age 7-14 days, unmated insects were held individually in 5.5 oz. cups, provided with fresh potato foliage on a continuous basis, and maintained under incubator conditions of a 16:8 light:dark cycle, 80-90% R.H., and “day” and “night” temperatures of 25° C. and 23° C., respectively. On the day of testing, insects were transferred to smaller 1 oz. cups and held for 1-3 hrs with moist filter paper but no foliage, then held in darkness for an additional 1-2 hrs.\nIndividual testing in a darkened room at 22° C. began by allowing the beetle to climb onto or be placed approximately midway up the vertical rod of the “T.” In response to a positive phototaxis to light from a flashlight mounted above the “T” and negative geotaxis, the beetles generally climbed upward. Once the insect began waving its antennae, presumably in response to test odors, its forward progress continued. Orientation was scored as soon as the test insect had moved completely from the horizontal to one of the 45 extension arms of the bioassay device. Following each test, the bioassay device was cleaned with acetone to remove contamination left by the insect. For any given series of tests, approximately half were done with the treatment and associated test apparatus on one side, and half were done with them on the other side.\nLaboratory bioassays were assessed for significant differences by the hypothesis on binomial proportions based on the standard normal approximation (Brase, C. H., and C. P. Brase (1983), Understanding Statistics, Lexington, Mass.: D. C. Heath)."}, "CPB adult antenna": {"system": "CPB adult antenna", "test": "Coupled GC/electroantennogram detection (GC/EAD, EAG)", "design": "species or system Leptinotarsa decemlineata", "settings": "for EAD response to compound in volatile collections (in words): volatiles from potato plants / CPB feeding on plant", "protocol": "Vertical bars represent standard errors (N=6, 3 males and 3 females).\nGC/EAD analysis of volatile collections: One microlitre samples of volatile collections were injected into a Hewlett Packard™ Model 5890A gas chromatograph (GC) equipped with an HP-5 capillary column (crosslinked 5% PH ME Siloxane; film thickness 0.25 μm; length 30 m; i.d. 0.25 mm) and flame ionization detector (FID). The effluent from the column was split using a Gerstel™ GraphPack-3D/2 splitter with a ratio of ˜1 to the GC (FID): 4 to an electroantennogram preparation of a CPB adult (EAD). The EAD preparation was an adult CPB antenna removed and mounted between two glass capillary electrodes filled with 0.1M NaCl. Ag—AgCl wires in the glass capillaries. An effluent conditioning assembly to carry GC effluent over a CPB antennal preparation, hardware, and software for data collection and analyses using a computer were obtained from SYNTECH (Hilversum, the Netherlands). After an initial temperature of 50° C. held for 2 minutes following injection, the GC oven increased at 15° C./min to 235° C. which was held for 8 minutes.\n(§1) Sensitivity of antennal olfactory receptors for the racemate and optical isomers of the male specific compound were tested using coupled GC/EAD and single sensillum recording techniques. GC/EAD tests involved injection of 1 μl of serial dilutions of 3,7-dimethyl-2-oxo-oct-6-ene-1,3-diol (CPB I)."}, "[2]": {"system": "antennal olfactory receptors (short sensillum on the penultimate antennal segment of a CPB)", "test": "Single sensillum (single cell) recording of receptor neuron response", "design": "species or system Leptinotarsa decemlineata", "settings": "100 ng source load; solvent control 8", "protocol": "as §1"}, "male CPB": {"system": "male CPB", "test": "Enhancement of production of male-specific compound CPB I (24 hour volatile collection)", "type": "in vivo, Leptinotarsa decemlineata", "protocol": "CPB I=male-specific compound; P=6-methyl-5-hepten-2-one; FID=response of flame ionization detector. Electroantennogram (EAD) response is included for A-C.\nVolatiles were collected from male CPB feeding on 4.8 g of potato foliage in the 3 L VCC. Collections were made continuously for a 24-hour period with a single VCT. Subsequently, volatiles from groups of 20 female CPB were similarly collected in the 3 L VCC continuously for 24 hours with a single VCT.\nIn an attempt to increase production of the male specific compound, males were subject to the following treatments: JHIII in acetone, extirpation of both antennae, and extirpation of both antennae+JHIII in acetone. All treatments were repeated at least three times. For the JHIII treatment, […] of a 5 μg/ml solution of JHIII was applied to the prothoracic sternum between the coxae. Antennae were removed at the third segment from the proximal end. All treatments were performed 1 hour before placing beetles into the VCC. For the treatment with both antennae removed+JHIII, three separate collections were made continuously for at least seven days following treatment. The collection chamber was cleaned, rinsed, and fresh foliage added daily."}}, "data": [{"smiles": "CC(C)=CCCC(C)(O)C(=O)CO", "note": "(racemic) [racemic CPB I, 3,7-dimethyl-2-oxo-oct-6-ene-1,3-diol]", "values": [{"measurement": "orientation preference (in words)", "setting": "[1]", "value": "no significant preference"}, {"measurement": "Mean EAG (in words)", "setting": "CPB adult antenna; 10 ng injection, males and females combined", "value": "intermediate response"}, {"measurement": "action potentials during 500 msec following the initial phasic increase", "setting": "[2]", "value": 18, "unit": "action potentials"}]}, {"smiles": "OCCc1ccccc1", "note": "[2-phenyl ethanol, reference compound]", "values": [{"measurement": "EAD response to compound in volatile collections (in words)", "setting": "CPB adult antenna", "value": "an EAD response for 2-phenyl ethanol was also observed"}]}, {"smiles": "CC(C)=CCC[C@@](C)(O)C(=O)CO", "note": "[(R)-CPB I]", "values": [{"measurement": "orientation preference (in words)", "setting": "[1]", "value": "inactive"}, {"measurement": "orientation preference (in words)", "setting": "[1]; listed as (R)-enantiomer", "value": "no significant preference"}, {"measurement": "action potentials during 500 msec following the initial phasic increase", "setting": "[2]", "value": 9, "unit": "action potentials"}]}, {"smiles": "COC(=O)/C=C(\\C)CC/C=C(\\C)CC[C@H]1OC1(C)C", "note": "[JH III, juvenile hormone III]", "values": [{"measurement": "production of CPB I after topical treatment", "setting": "male CPB; 10 μg JH III topical, 20 males, 24 hour collection, untreated mean 53 ng", "value": 396.2, "unit": "ng"}, {"measurement": "enhancement of collections of CPB I", "setting": "male CPB; JH III and antennectomy", "value": "~200", "unit": "×"}, {"measurement": "enhancement of CPB I production relative to untreated males", "setting": "male CPB; JH III topical alone", "value": "eightfold"}, {"measurement": "production of CPB I after combined treatment", "setting": "male CPB; JH III topical and antennectomy", "value": 8833, "unit": "ng"}, {"measurement": "increase of quantities of CPB I released vs control insects", "setting": "male CPB; JH III treatment and antennectomy", "value": 166, "unit": "times"}]}, {"smiles": "CCCCCCCCC=O", "note": "[nonanal, reference compound]", "values": [{"measurement": "EAD response to compound in volatile collections (in words)", "setting": "CPB adult antenna", "value": "EAD responses were present"}]}]}
